Laboratory results as given in the NIST ThermoML archive (doi:10.1016/j.jct.2018.01.023).
± gives the expanded uncertainty stated by the source.

Conditions: Crystal; for Normal melting temperature: DTA; for mass density: 101.33 kPa, X-ray diffraction

SMILES	Normal melting temperature	mass density (293 K)	mass density (473 K)	mass density (573 K)	mass density (673 K)	mass density (773 K)	mass density (873 K)	mass density (973 K)
[F-].[F-].[F-].[K+].[Ni+2] [nickel potassium fluoride (KNiF3)]	1120 ± 20 °C							
[F-].[K+] [potassium fluoride]	856 ± 10 °C	2530 ± 12 kg/m3						
[F][Ni][F] [nickel difluoride]	1356 ± 10 °C	4808 ± 24 kg/m3						
[F-].[Li+] [lithium fluoride]	845 ± 10 °C	2634 ± 2 kg/m3	2576 ± 12 kg/m3	2554 ± 11 kg/m3	2522 ± 12 kg/m3	2493 ± 13 kg/m3	2455 ± 12 kg/m3	2432 ± 9 kg/m3
